Results published in patent US20240398783A1, “Compounds and Pharmaceutical Compositions Comprising Inhibitors of Amyloid Peptide Interactions with Glycosaminoglycans, Methods of Treatment and Use Thereof” (Gismo Therapeutics, Inc., priority 2021, published 2024).
Where a name gives a salt, the structure may show the parent alone.

The compounds below were run against Alpha-Synuclein Protofibril binding to heparin (HS-GAG) (Homo sapiens, UniProt P37840) (assay: Inhibition of alpha-synuclein protofibril binding to immobilized heparin-BSA (ELISA)). Details: 30 μM compound; alpha-synuclein protofibrils, heparin-BSA; read-out: Alpha-Synuclein/Heparin Activity (% inhibition class).
Parameters: species or system porcine
Description: Porcine intestinal mucosa heparin conjugated to Bovine Serum Albumin (Heparin-BSA) was prepared as described (Najjam, S. et al. 1997, Cytokine 12, 1013-1022). Heparin is a sulfated HS-GAG and is commonly used as a HS-GAG in biochemical and binding assays (Lindahl, U. and Kjellen, L. (2013) ibid). Heparin-BSA at 0.01 mg/ml in Phosphate Buffered Saline (PBS; pH 7.4) was added to a 96 well polystyrene ELISA plate (NUNC Cat. No. 449824; 100 μl per well) and incubated Over Night (ON) at 4 degrees Celsius. For negative controls, ELISA plates were coated with BSA instead of Heparin-BSA, using the same procedure. Following the incubation, the plate was washed consecutively, by immersion, with de-ionized water and PBS (pH 7.4). The ELISA plate was then blocked with nonfat milk (2%, 200 μl per well) for 2 hours at Room Temperature (RT) with gentle shaking. Following blocking, the plate was washed with de-ionized water then PBS (pH 7.4). GBAPs were dissolved and diluted in PBS (pH 6.5, supplemented with 0.1% BSA) at desired concentrations, added to the ELISA plates containing immobilized Heparin-BSA (100 μl per well) and incubated for 2 hours at RT with gentle shaking. Following incubation, the plate was washed with de-ionized water and three times with PBS (pH 6.5) plus Tween. Bound GBAP was detected by a monoclonal antibody specific for that GBAP, followed by incubation with secondary antibody conjugated to horseradish peroxidase (HRP). Antibody was diluted in PBS (pH 6.5 supplemented with 1% BSA). Following each incubation with antibody, the plate was washed with de-ionized water and three times with PBS (pH 6.5) wash buffer containing 0.1% Tween. The peroxidase substrate chromogen, TMB (Dako Cat. No. S1599) was added (100 μl per well) to the ELISA plate and incubated at room temperature. After 5 minutes ELISA Stop Solution (hydrochloric acid 1N, sulfuric acid 3N) was added (100 μl per well) to stop the peroxidase catalyzed colorimetric reaction. The Optical Density of the samples was measured at 450 nm using an ELISA plate reader (BioTek Synergy H1). Following color development, the % inhibition compared to control (BSA-coated plates) was determined. IC-50s were calculated using GraphPad Prism software.
The assay was performed as described in Example 43, with the following modifications. Following to coating the plates with Heparin-BSA, plates were washed as described. The compounds were dissolved in DMSO at 10 mM final concentration and further diluted prior to assay. DMSO concentration in the screening well was up to […]. Individual compounds were co-incubated with alpha-synuclein on plates containing immobilized heparin. Alpha-synuclein purchased from rPeptide (Cat. No. S1001) was used to prepare protofibrils as described in Ihse et al., 2017. Alpha-synuclein was dissolved in PBS (pH7.4) to a concentration of 140 μM (˜2 mg/ml), and incubated for 7 days at 37° C. with rotary agitation (400 rpm). Resulting fibrils were sonicated for 10 minutes in ultrasonic water bath, quickly frozen and kept in aliquots at −80 degrees Celsius. Protofibrillar alpha-synuclein diluted in PBS (pH 6.5, supplemented with BSA, 0.1%) was added to the ELISA plate (100 μl per well) and incubated for 2 hours at RT with gentle shaking. Following the incubation, the plate was washed with de-ionized water and three times with PBS (pH 6.5) plus Tween. Bound Alpha-synuclein was detected by Anti-Alpha-synuclein Monoclonal Antibody 211 (Santa Cruz Cat. No. sc-12767), followed by secondary anti-IgG antibody conjugated to HRP (R&D System, Cat. No. HAF007). Following to color development with TMB, as described in Example 43, the Optical Density of the samples was measured at 450 nm using an ELISA plate reader. Following color development, the % inhibition compared to control (no compound, DMSO control) for every compound was determined.
An example of inhibition curve is shown in FIG. 1 for Inhibitor Compounds 22 and 24. […]

| Structure (SMILES) | inhibition at 30 µM [%] |
| --- | --- |
| CCN(CC)Cc1cccc(Nc2ccnc3cc(Cl)ccc23)c1 [Compound 42, 7-chloro-N-(3-((diethylamino)methyl)phenyl)quinolin-4-amine] | < 30 |
| CN(C)Cc1cc(Nc2ccnc3cc(Cl)ccc23)ccn1 [Compound 45, 7-chloro-N-(2-((dimethylamino)methyl)pyridin-4-yl)quinolin-4-amine] | < 30 |

Same assay, conditions: Alpha-Synuclein/Heparin Activity (IC-50), alpha-synuclein protofibrils, heparin-BSA

| Structure (SMILES) | IC50 [µM] |
| --- | --- |
| Clc1ccc2c(Nc3ccc(-n4cncn4)nc3)ncnc2c1 [Compound 34, N-(6-(1H-1,2,4-triazol-1-yl)pyridin-3-yl)-7-chloroquinazolin-4-amine phosphoric acid salt] | 5.06 |
| CC(=NNc1ccnc2cc(Cl)ccc12)c1ccc(-n2ccnc2)cc1 [Compound 36, 4-(2-(1-(4-(1H-imidazol-1-yl)phenyl)ethylidene)hydrazineyl)-7-chloroquinoline phosphate] | 4.17 |
| Clc1ccc2c(N/N=C/c3ccc(-n4ccnc4)cc3)ccnc2c1 [Compound 38, 4-(2-(4-(1H-imidazol-1-yl)benzylidene)hydrazineyl)-7-chloroquinoline dihydrochloride] | 1.88 |
| CCN1CCN(c2ccc(Nc3ccnc4cc5ccccc5cc34)cc2)CC1 [Compound 39, N-(4-(4-ethylpiperazin-1-yl)phenyl)benzo[g]quinolin-4-amine] | 3.39 |
| Clc1ccc2c(Nc3ccc(-n4cncn4)nc3)ccnc2c1 [Compound 44, N-(6-(1H-1,2,4-triazol-1-yl)pyridin-3-yl)-7-chloroquinolin-4-amine] | 19.2 |

Same assay, conditions: alpha-synuclein protofibrils, heparin-BSA; read-out: Alpha-Synuclein/Heparin Activity (IC-50)

| IC50 [µM] | Structure (SMILES) |
| --- | --- |
| 3.23 | CC(=NNc1ncnc2cc(Cl)ccc12)c1ccnc(-n2cnc(C)c2C)c1 [Compound 28, 7-chloro-4-(2-(1-(2-(4,5-dimethyl-1H-imidazol-1-yl)pyridin-4-yl)ethylidene)hydrazineyl)quinazoline] |
| 12.8 | Clc1ccc2c(Nc3ccc(-n4ccnc4)nc3)ncnc2c1 [Compound 41, N-(6-(1H-imidazol-1-yl)pyridin-3-yl)-7-chloroquinazolin-4-amine] |

Same assay, conditions: read-out: Alpha-Synuclein/Heparin Activity (% inhibition class)

| Structure (SMILES) | inhibition at 30 µM [%] |
| --- | --- |
| C/C(=N\Nc1ncnc2cc(Cl)ccc12)c1cccc(CN(C)C)c1 [Compound 29, 1-(3-(1-(2-(7-chloroquinazolin-4-yl)hydrazineylidene)ethyl)phenyl)—N,N-dimethylmethanamine] | > 30 |
| C/C(=N\Nc1ncnc2cc(Cl)ccc12)c1cccc(N2CCN(C)CC2)c1 [Compound 30, 7-chloro-4-(2-(1-(3-(4-methylpiperazin-1-yl)phenyl)ethylidene)hydrazineyl)quinazoline] | > 30 |
| COc1cc(Nc2nncc3cc(Cl)ccc23)cnc1-n1cnc(C)c1C [Compound 31, 6-chloro-N-(6-(4,5-dimethyl-1H-imidazol-1-yl)-5-methoxypyridin-3-yl)phthalazin-1-amine phosphoric acid salt] | < 30 |
| C/C(=N\Nc1ncnc2cc(Cl)ccc12)c1ccc(-n2cncn2)nc1 [Compound 32, (E)-4-(2-(1-(6-(1H-1,2,4-triazol-1-yl)pyridin-3-yl)ethylidene)hydrazineyl)-7-chloroquinazoline] | > 30 |
| COc1cc(Nc2cncc3cc(Cl)ccc23)cnc1-n1cnc(C)c1C [Compound 33, 7-chloro-N-(6-(4,5-dimethyl-1H-imidazol-1-yl)-5-methoxypyridin-3-yl)isoquinolin-4-amine phosphoric acid salt] | < 30 |
| Fc1cc(/C=N/Nc2ccnc3cc(Cl)ccc23)ccc1-n1ccnc1 [Compound 35, (E)-7-chloro-4-(2-(3-fluoro-4-(1H-imidazol-1-yl)benzylidene)hydrazineyl)quinoline hydrochloride] | < 30 |
| Cc1cn(-c2ccc(Nc3cncc4cc(Cl)ccc34)cn2)c(C)n1 [Compound 37, 7-chloro-N-(6-(2,4-dimethyl-1H-imidazol-1-yl)pyridin-3-yl)isoquinolin-4-amine phosphoric acid salt] | < 30 |
| Cc1ncn(-c2ncc(Nc3ncnc4cc(Cl)ccc34)cc2O)c1C [Compound 40, 5-((7-chloroquinazolin-4-yl)amino)-2-(4,5-dimethyl-1H-imidazol-1-yl)pyridin-3-ol phosphoric acid salt] | < 30 |
| C[n+]1ccn(-c2ccc(Nc3ncnc4cc(Cl)ccc34)cn2)c1 [Compound 43, 1-(5-((7-chloroquinazolin-4-yl)amino)pyridin-2-yl)-3-methyl-1H-imidazol-3-ium iodide phosphoric acid salt] | < 30 |
